How the values were obtained:
Type in all cases: in vivo
Spodoptera frugiperda = Spodoptera frugiperda spray test; conditions: in Zea mays, 168 h
Outline: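 Leaf-spray assay on maize: sections treated with active ingredient at the desired concentration in emulsifier-containing water (1000 ppm) and, once dry, exposed to armyworm caterpillars. Kill rate is expressed in percent after seven days.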

Myzus persicae [1] = assay: Myzus persicae oral test; conditions: 120 h
Outline: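 Feeding test: compound diluted in water was combined with IPL41 insect medium (33%+15% sugar) under a parafilm seal. A mixed population of green peach aphids fed through the membrane. Mortality (%) was scored after 5 days.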

Phaedon cochleariae = Phaedon cochleariae spray test; conditions: foliar, 168 h, Chinese cabbage leaf disks, after 7 days
Procedure: Phaedon cochleariae—Spray Test
(§1) To produce a suitable preparation of active compound, 1 part by weight of active compound is mixed with the stated amount of solvents and is diluted with water, containing an emulsifier concentration of 1000 ppm, to the desired concentration. Further test concentrations are prepared by dilution with emulsifier containing water.
Chinese cabbage (Brassica pekinensis) leaf disks are sprayed with a preparation of the active ingredient of the desired concentration. Once dry, the leaf disks are infested with mustard beetle larvae (Phaedon cochleariae).
After 7 days mortality in % is determined. 100% means all beetle larvae have been killed and 0% means none of the beetle larvae have been killed.

Diabrotica balteata = Diabrotica balteata spray test; conditions: 160 μg/well, wheat seeds, after 7 days; for pest or weed control at 160 µg/disc, 160 µg/well: Diabrotica balteata, 168 h, read-out: efficacy (seedlings grown)
Outline: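 Efficacy (%) read 7 days after infesting treated seedlings with 10-20 banded cucumber beetle larvae, 100% meaning growth as in uninfected untreated control and 0% no growth. Test solutions in water containing 1000 ppm emulsifier were sprayed onto wheat seeds germinated for 1 day on agar.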

Ctenocephalides felis [2] = assay: Ctenocephalides felis oral test; conditions: Ctenocephalides felis, in Bos taurus, po, 48 h
Outline: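 About 20 adult unfed fleas fed through parafilm on cattle blood containing compound (DMSO concentrate diluted in blood); blood held at 37° C., fleas at room temperature. Mortality in % scored after 2 days (100% = all killed).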

Nezara viridula = Nezara viridula spray test; conditions: in Hordeum vulgare, 96 h
Outline: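 Barley plants infested with stink bug larvae were sprayed with compound diluted in water containing 1000 ppm emulsifier. Mortality (%) was scored after 4 days, 100% meaning all bugs killed.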

[3] = system: Culex quinquefasciatus strain P00; assay: Culex quinquefasciatus test (CULXFA surface treatment & contact assay); conditions: 24 hours after contact, read-out: efficacy (mortality); for mortality at 4 mg/m2: surface concentration 4 mg/m^2, 30 minutes exposure; for mortality at 20 mg/m2: surface concentration 20 mg/m^2, 30 minutes exposure
Outline: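 Compound dissolved in acetone (2 mg/ml) with 2000 ppm rapeseed oil methyl ester, applied to glazed tile and dried. Adult strain P00 mosquitoes exposed to the surface for 30 minutes. Percent mortality scored 24 hours after contact.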

[4] = system: Aedes aegypti strain MONHEIM; assay: Aedes aegypti test (AEDSAE surface treatment & contact assay); conditions: 24 hours after contact, read-out: efficacy (mortality); for mortality at 4 mg/m2: surface concentration 4 mg/m^2, 30 minutes exposure; for mortality at 20 mg/m2: surface concentration 20 mg/m^2, 30 minutes exposure
Outline: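 Compound dissolved in acetone (2 mg/ml) with 2000 ppm rapeseed oil methyl ester and dried onto a glazed tile. Adult mosquitoes held on the treated surface for 30 minutes exposure. Percent mortality scored 24 hours after contact.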

Boophilus microplus = Boophilus microplus injection test; conditions: 20 μg/animal, egg deposition after 7 days; for pest or weed control at 0.02 mg: Rhipicephalus microplus, 168 h, read-out: efficacy (infertile eggs)
Outline: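 Efficacy expresses the share of infertile eggs (100% all infertile, 0% all fertile), judged at 7 days or at hatching around day 42. Five adult engorged females were each injected abdominally with 1 μl of DMSO compound solution and incubated in a climate chamber.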

Nilaparvata lugens = Nilaparvata lugens spray test; conditions: Nilaparvata lugens, in Oryza sativa, 96 h
Outline: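 Rice plants sprayed with compound diluted in water containing 1000 ppm emulsifier, then infested with brown planthopper. Mortality (%) scored after 4 days, 100% meaning all insects killed.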

[5] = system: Musca domestica strain WHO-N; assay: Musca domestica test (MUSCDO surface treatment & contact assay); conditions: 24 hours after contact, read-out: efficacy (mortality); for mortality at 20 mg/m2: surface concentration 20 mg/m^2, 30 minutes exposure
Procedure: Musca domestica Test (MUSCDO Surface Treatment & Contact Assay)
(§2) Solvent: Aceton+2000 ppm rapeseed oil methyl ester (RME)
In order to produce a sufficient, active ingredient containing solution it is necessary to solve the test-compound in the solvent-mix (Acetone at 2 mg/ml/RME 2000 ppm). This solution is pipetted onto a glazed tile and after evaporation of the Acetone, adult flies of the species Musca domestica strain WHO-N are placed onto the dried surface. The exposure time is 30 minutes.
(§3) Mortality in percent (%) is determined 24 hours after contact to the treated surface. 100% mortality means that all test-insects are dead, whereas 0% means that not a single insect died.

Ctenocephalides felis [6] = assay: Ctenocephalides felis in-vitro contact test adult cat flea; conditions: 5 μg/cm^2 (=500 g/ha), after 48 hours; for pest or weed control at 5 µg/cm2, 5 µg/cm2: Ctenocephalides felis, read-out: efficacy (fleas dead or moribund)
Outline: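 Efficacy (% dead or moribund) was scored 48 h after adult Ctenocephalides felis were confined in tubes coated with the acetone-applied compound (900 ppm, 5 μg/cm^2). Moribund status was judged by failure to escape a 45-50° C heating plate within 5 minutes.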

Rhipicephalus sanguineus = Rhipicephalus sanguineus in-vitro contact test with adult brown dog ticks; conditions: 5 μg/cm^2 (=500 g/ha), after 48 hours
Procedure: Rhipicephalus sanguineus—In-Vitro Contact Test with Adult Brown Dog Ticks
9 mg compound is solved in 1 ml acetone and diluted with acetone to the desired concentration. 250 μl of the test solution is filled in 25 ml glass test tubes and homogeneously distributed on the inner walls by rotation and tilting on a shaking device (2 h at 30 rpm). With a compound concentration of 900 ppm, an inner surface of 44.7 cm^2 and a homogeneous distribution, a dose of 5 μg/cm^2 is achieved.
After the solvent has evaporated, each test tube is filled with 5-10 adult brown dog ticks (Rhipicephalus sanguineus), closed with a perforated lid and incubated in a lying position at room temperature and relative humidity. After 48 hours efficacy is determined. The ticks are patted on the ground of the tubes and are incubated on a heating plate at 45-50° C. for at most 5 minutes. Immotile or uncoordinated moving ticks, which are not able to escape the heat by climbing upwards, are marked as dead or moribund.
An efficacy of 100% means all ticks are dead or moribund; 0% means no ticks are dead or moribund.

[7] = system: Anopheles funestus strain FUMOZ-R; assay: Anopheles funestus test (ANPHFU surface treatment & contact assay); conditions: 24 hours after contact, read-out: efficacy (mortality); for mortality at 4 mg/m2: surface concentration 4 mg/m^2, 30 minutes exposure; for mortality at 20 mg/m2: surface concentration 20 mg/m^2, 30 minutes exposure
Procedure: Anopheles funestus Test (ANPHFU Surface Treatment & Contact Assay)
as §2
In order to produce a sufficient, active ingredient containing solution it is necessary to solve the test-compound in the solvent-mix (Acetone at 2 mg/ml/RME 2000 ppm). This solution is pipetted onto a glazed tile and after evaporation of the Acetone, adult mosquitoes of the species Anopheles funestus strain FUMOZ-R (Hunt et al., Med Vet Entomol. 2005 September; 19(3):271-5) are placed onto the dried surface. The exposure time is 30 minutes.
as §3

Myzus persicae [8] = assay: Myzus persicae spray test; conditions: in Brassica rapa, foliar, 120 h
Procedure: Myzus persicae—Spray Test
as §1
Chinese cabbage (Brassica pekinensis) leaf disks infected with all instars of the green peach aphid (Myzus persicae), are sprayed with a preparation of the active ingredient of the desired concentration.
After 5 days mortality in % is determined. 100% means all aphids have been killed and 0% means none of the aphids have been killed.

SMILES | mortality at 500 g/ha (Spodoptera frugiperda) [%] | mortality at 20 ppm (Myzus persicae [1]) [%] | mortality at 500 g/ha (Phaedon cochleariae) [%] | pest or weed control at 160 µg/disc, 160 µg/well (Diabrotica balteata) [%] | mortality at 100 ppm (Ctenocephalides felis [2]) [%] | mortality at 500 g/ha (Nezara viridula) [%] | mortality at 20 mg/m2 [4] [%] | pest or weed control at 0.02 mg (Boophilus microplus) [%] | mortality at 500 g/ha (Nilaparvata lugens) [%] | pest or weed control at 5 µg/cm2, 5 µg/cm2 (Ctenocephalides felis [6]) [%] | further results
CC(c1ncnn1-c1ncccn1)N(CC1CC1)C(=O)c1cc(Cl)cc(Cl)c1Cl (stereo not drawn) [Example I-009] | 100 | 100 | 100 | 100 | 100 | – | – | – | – | – | mortality at 4 ppm (Myzus persicae [1]): 100%
CC(c1ncnn1-c1ncccn1)N(CC1CC1)C(=O)c1cc(-c2ccccc2)cc(C(F)(F)F)c1 (stereo not drawn) [Example I-010] | – | – | 100 | – | 100 | – | – | – | – | – | –
CC(c1ncnn1-c1ncccn1)N(CC1CC1)C(=O)c1cc(-c2ccc(F)cc2)cc(C(F)(F)F)c1 (stereo not drawn) [Example I-012] | 100 | 100 | 100 | 100 | 100 | – | – | – | – | – | –
CC(c1ncnn1-c1ncccn1)N(CC1CC1)C(=O)c1cccc(Cl)c1Cl (stereo not drawn) [Example I-016] | – | – | 100 | 100 | – | 100 | – | – | – | – | –
CC(c1ncnn1-c1ncccn1)N(CC1CC1)C(=O)c1cc(Cl)cc(S(=O)(=O)C(F)(F)F)c1 (stereo not drawn) [Example I-019] | 100 | 100 | 100 | 100 | 100 | 100 | 90 to 100 | 100 | 100 | 100 | mortality at 4 mg/m2 [3]: 80 to 100%; mortality at 20 mg/m2 [3]: 80 to 100%; mortality at 4 mg/m2 [4]: 80 to 100%; mortality at 20 mg/m2 [5]: 80 to 100%; mortality at 4 ppm (Myzus persicae [1]): 100%
CC(c1ncnn1-c1ncccn1)N(CC1CC1)C(=O)c1csc(Cl)c1 (stereo not drawn) [Example I-021] | – | – | – | – | 100 | – | – | 80 | – | 100 | pest or weed control at 5 µg/cm2, 5 µg/cm2 (Rhipicephalus sanguineus; Rhipicephalus sanguineus, read-out: efficacy (ticks dead or moribund)): 80%
CC(c1ncnn1-c1ncccn1)N(CC1CC1)C(=O)c1cc(Cl)c(Cl)s1 (stereo not drawn) [Example I-024] | – | 100 | 100 | 100 | 100 | – | 90 to 100 | 100 | 100 | 100 | mortality at 4 mg/m2 [7]: 85 to 100%; mortality at 20 mg/m2 [7]: 85 to 100%; mortality at 4 ppm (Myzus persicae [1]): 100%
CC(c1ncnn1-c1ncccn1)N(CC1CC1)C(=O)c1cc(C(F)(F)F)n(C)n1 (stereo not drawn) [Example I-025] | – | 100 | 83 | 100 | 100 | 100 | 90 to 100 | 100 | 100 | 100 | mortality at 20 mg/m2 [3]: 80 to 100%; mortality at 4 mg/m2 [7]: 85 to 100%; mortality at 20 mg/m2 [7]: 85 to 100%; mortality at 20 mg/m2 [5]: 80 to 100%
CC(c1ncnn1-c1ncccn1)N(CC1CC1)C(=O)c1c(Cl)c(C(F)(F)F)nn1C (stereo not drawn) [Example I-026] | – | – | 100 | 100 | – | – | – | – | – | – | –
CC(c1ncnn1-c1ncccn1)N(CC1CC1)C(=O)c1cc(C2CC2)on1 (stereo not drawn) [Example I-028] | – | – | 100 | 100 | 100 | – | – | – | – | – | –
CC(NC(=O)c1cc(Cl)cc(S(C)(=O)=O)c1)c1ncnn1-c1ncccn1 (stereo not drawn) [Example I-037] | – | – | – | – | – | – | – | – | – | – | efficacy (infertile eggs) (Boophilus microplus): 100%; efficacy (fleas dead or moribund) (Ctenocephalides felis [6]): 100%; efficacy (ticks dead or moribund) (Rhipicephalus sanguineus): 80%; efficacy (seedlings grown) (Diabrotica balteata): 100%
C[C@@H](NC(=O)c1cc(C(F)(F)F)n(C)n1)c1ncnn1-c1ncccn1 [Example I-100] | 100 | – | – | 100 | – | 100 | 90 to 100 | – | 100 | – | mortality at 4 mg/m2 [3]: 80 to 100%; mortality at 20 mg/m2 [3]: 80 to 100%; mortality at 4 mg/m2 [4]: 80 to 100%; mortality at 4 mg/m2 [7]: 85 to 100%; mortality at 20 mg/m2 [7]: 85 to 100%; mortality at 4 mg/m2 ([5]; surface concentration 4 mg/m^2, 30 minutes exposure): 80 to 100%; mortality at 20 mg/m2 [5]: 80 to 100%; mortality at 500 g/ha (Myzus persicae [8]): 90%

Source: patent publication US12187705B2, “Heteroaryl-triazole and heteroaryl-tetrazole compounds as pesticides” (Bayer Aktiengesellschaft, priority 2018, dated 2025)
